Data as given in publication PMC12527922, “Cocaine chemogenetics blunts drug-seeking by synthetic physiology” (Nature, 2025).
Like-named read-outs stand apart in the source and are kept apart here.

How the values were obtained:
Assay in all cases: cell-based
Format in all cases: cell-based, human α7 nAChR LBD, mouse 5HT3 IPD
[1] = target: α7–5HT3 mutant chimeric channels (Homo sapiens, UniProt P36544, W77F)
[2] = target: α7–5HT3 mutant chimeric channels (Homo sapiens, UniProt P36544, Q79A)
[3] = target: α7–5HT3 mutant chimeric channels (Homo sapiens, UniProt P36544, W77Y)
α7–5HT3 mutant chimeric channels (Homo sapiens, UniProt P36544, W77Y), sequence (P36544 23-224 W77Y): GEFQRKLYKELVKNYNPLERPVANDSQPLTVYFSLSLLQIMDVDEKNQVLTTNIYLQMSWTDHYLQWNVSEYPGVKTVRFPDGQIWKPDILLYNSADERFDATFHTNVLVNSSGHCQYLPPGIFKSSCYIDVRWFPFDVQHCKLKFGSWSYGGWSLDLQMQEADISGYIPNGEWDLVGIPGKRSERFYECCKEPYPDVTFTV
α7–5HT3 mutant chimeric channels (Homo sapiens, UniProt P36544, W77Y), sequence (P23979 242-489, further chain): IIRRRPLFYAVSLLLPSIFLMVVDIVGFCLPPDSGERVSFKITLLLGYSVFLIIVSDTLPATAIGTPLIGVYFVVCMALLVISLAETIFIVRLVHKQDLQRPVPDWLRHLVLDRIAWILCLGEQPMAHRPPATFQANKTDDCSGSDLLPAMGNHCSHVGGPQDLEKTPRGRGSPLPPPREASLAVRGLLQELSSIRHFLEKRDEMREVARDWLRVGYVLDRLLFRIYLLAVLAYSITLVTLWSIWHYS

[4] = target: α7–5HT3 mutant chimeric channels (Homo sapiens, UniProt P36544, Q139K)
α7–5HT3 mutant chimeric channels (Homo sapiens, UniProt P36544, Q139K), sequence (P23979 242-489): as the sequence (P23979 242-489, further chain) above
α7–5HT3 mutant chimeric channels (Homo sapiens, UniProt P36544, Q139K), sequence (P36544 23-224 Q139K): as the sequence (P36544 23-224 W77Y) above, with Y55W, Q117K counted along it

[5] = target: α7–5HT3 mutant chimeric channels (Homo sapiens, UniProt P36544, S170E)
[6] = target: α7–5HT3 mutant chimeric channels (Homo sapiens, UniProt P36544, S172K)
[7] = target: α7–5HT3 mutant chimeric channels (Homo sapiens, UniProt P36544, S170Y)
[8] = target: α7–5HT3 mutant chimeric channels (Homo sapiens, UniProt P36544, Q139A)
α7–5HT3 mutant chimeric channels (Homo sapiens, UniProt P36544, Q139A), sequence (P23979 242-489): as the sequence (P23979 242-489, further chain) above
α7–5HT3 mutant chimeric channels (Homo sapiens, UniProt P36544, Q139A), sequence (P36544 23-224 Q139A): as the sequence (P36544 23-224 W77Y) above, with Y55W, Q117A counted along it

[9] = target: α7–5HT3 mutant chimeric channels (Homo sapiens, UniProt P36544, Q139P)
α7–5HT3 mutant chimeric channels (Homo sapiens, UniProt P36544, Q139P), sequence (P23979 242-489): as the sequence (P23979 242-489, further chain) above
α7–5HT3 mutant chimeric channels (Homo sapiens, UniProt P36544, Q139P), sequence (P36544 23-224 Q139P): as the sequence (P36544 23-224 W77Y) above, with Y55W, Q117P counted along it

[10] = target: α7–5HT3 mutant chimeric channels (Homo sapiens, UniProt P36544, S170G)
[11] = target: α7–5HT3 mutant chimeric channels (Homo sapiens, UniProt P36544, Q139F)
α7–5HT3 mutant chimeric channels (Homo sapiens, UniProt P36544, Q139F), sequence (P36544 23-224 Q139F): as the sequence (P36544 23-224 W77Y) above, with Y55W, Q117F counted along it
α7–5HT3 mutant chimeric channels (Homo sapiens, UniProt P36544, Q139F), sequence (P23979 242-489, further chain): as the sequence (P23979 242-489, further chain) above

[12] = target: α7–5HT3 mutant chimeric channels (Homo sapiens, UniProt P36544, S170Q)
[13] = target: α7–5HT3 mutant chimeric channels (Homo sapiens, UniProt P36544, Q139M)
[14] = target: α7–5HT3 mutant chimeric channels (Homo sapiens, UniProt P36544, Q139L)
[15] = target: α7–5HT3 mutant chimeric channels (Homo sapiens, UniProt P36544, S170W)
[16] = target: α7–5HT3 mutant chimeric channels (Homo sapiens, UniProt P36544, Q139Y)
α7–5HT3 mutant chimeric channels (Homo sapiens, UniProt P36544, Q139Y), sequence (P36544 23-224 Q139Y): as the sequence (P36544 23-224 W77Y) above, with Y55W, Q117Y counted along it
α7–5HT3 mutant chimeric channels (Homo sapiens, UniProt P36544, Q139Y), sequence (P23979 242-489, further chain): as the sequence (P23979 242-489, further chain) above

[17] = target: α7–5HT3 mutant chimeric channels (Homo sapiens, UniProt P36544, L131G)
[18] = target: α7–5HT3 mutant chimeric channels (Homo sapiens, UniProt P36544, Q139D)
α7–5HT3 mutant chimeric channels (Homo sapiens, UniProt P36544, Q139D), sequence (P23979 242-489): as the sequence (P23979 242-489, further chain) above
α7–5HT3 mutant chimeric channels (Homo sapiens, UniProt P36544, Q139D), sequence (P36544 23-224 Q139D): as the sequence (P36544 23-224 W77Y) above, with Y55W, Q117D counted along it

[19] = target: α7–5HT3 mutant chimeric channels (Homo sapiens, UniProt P36544, Q139R)
α7–5HT3 mutant chimeric channels (Homo sapiens, UniProt P36544, Q139R), sequence (P23979 242-489): as the sequence (P23979 242-489, further chain) above
α7–5HT3 mutant chimeric channels (Homo sapiens, UniProt P36544, Q139R), sequence (P36544 23-224 Q139R): as the sequence (P36544 23-224 W77Y) above, with Y55W, Q117R counted along it

[20] = target: α7–5HT3 mutant chimeric channels (Homo sapiens, UniProt P36544, L141A)
[21] = target: α7–5HT3 mutant chimeric channels (Homo sapiens, UniProt P36544, S170N)
[22] = target: α7–5HT3 mutant chimeric channels (Homo sapiens, UniProt P36544, S172L)
[23] = target: α7–5HT3 mutant chimeric channels (Homo sapiens, UniProt P36544, W77L)
[24] = target: α7–5HT3 mutant chimeric channels (Homo sapiens, UniProt P36544, L141G)
[25] = target: α7–5HT3 mutant chimeric channels (Homo sapiens, UniProt P36544, L141P)
[26] = target: α7–5HT3 mutant chimeric channels (Homo sapiens, UniProt P36544, S172V)

α7–5HT3 mutant chimeric channels (Homo sapiens, UniProt P36544, W77F), sequence (P23979 242-489): as the sequence (P23979 242-489, further chain) above
α7–5HT3 mutant chimeric channels (Homo sapiens, UniProt P36544, W77F), sequence (P36544 23-224 W77F): as the sequence (P36544 23-224 W77Y) above, with Y55F counted along it
α7–5HT3 mutant chimeric channels (Homo sapiens, UniProt P36544, Q79A), sequence (P23979 242-489): as the sequence (P23979 242-489, further chain) above
α7–5HT3 mutant chimeric channels (Homo sapiens, UniProt P36544, Q79A), sequence (P36544 23-224 Q79A): as the sequence (P36544 23-224 W77Y) above, with Y55W, Q57A counted along it

## COC(=O)[C@H]1[C@@H](OC(=O)c2ccccc2)C[C@@H]2CC[C@H]1N2C [cocaine]
[1]
  EC50: > 30 µM
[1]; read-out: EC50 at a7 5HT3 W77F, sheet 1d, single determinations
  EC50: > 30 µM
[2]
  EC50: > 30 µM
[2]; read-out: EC50 at a7 5HT3 Q79A, sheet 1d, single determinations
  EC50: > 30 µM
[3]
  EC50: > 30 µM
[3]; read-out: EC50 at a7 5HT3 W77Y, Avg, sheet 1d, Avg
  EC50: > 30 µM
[4]
  EC50: > 30 µM
[4]; read-out: EC50 at a7 5HT3 Q139K, Avg, sheet 1d, Avg
  EC50: > 30 µM
[5]
  EC50: > 30 µM
[6]
  EC50: > 30 µM
[7]
  EC50: > 30 µM
[8]
  EC50: > 30 µM
[8]; read-out: EC50 at a7 5HT3 Q139A, Avg, sheet 1d, Avg
  EC50: > 30 µM
[9]
  EC50: > 30 µM
[9]; read-out: EC50 at a7 5HT3 Q139P, Avg, sheet 1d, Avg
  EC50: > 30 µM
[10]
  EC50: > 30 µM
[11]
  EC50: > 30 µM
[11]; read-out: EC50 at a7 5HT3 Q139F, Avg, sheet 1d, Avg
  EC50: > 30 µM
[12]
  EC50: > 30 µM
[13]
  EC50: > 30 µM
[13]; read-out: EC50 at a7 5HT3 Q139M, Avg, sheet 1d, Avg
  EC50: > 30 µM
[14]
  EC50: > 30 µM
[14]; read-out: EC50 at a7 5HT3 Q139L, sheet 1d, single determinations
  EC50: > 30 µM
[15]
  EC50: > 30 µM
[16]
  EC50: > 30 µM
[16]; read-out: EC50 at a7 5HT3 Q139Y, Avg, sheet 1d, Avg
  EC50: > 30 µM
[17]
  EC50: > 30 µM
[17]; read-out: EC50 at α75HT3 L131G, sheet 1d, single determinations
  EC50: > 30 µM
[18]
  EC50: > 30 µM
[18]; read-out: EC50 at a7 5HT3 Q139D, Avg, sheet 1d, Avg
  EC50: > 30 µM
[19]
  EC50: > 30 µM
[19]; read-out: EC50 at a7 5HT3 Q139R, Avg, sheet 1d, Avg
  EC50: > 30 µM
[20]
  EC50: 3.5 µM
[21]
  EC50: > 30 µM
[22]
  EC50: > 30 µM
[23]
  EC50: > 30 µM
[23]; read-out: EC50 at a7 5HT3 W77L, Avg, sheet 1d, Avg
  EC50: > 30 µM
[24]
  EC50: 2.35 µM
[25]
  EC50: > 30 µM
[25]; read-out: EC50 at α75HT3 L141P, Avg, sheet 1d, Avg
  EC50: > 30 µM
[26]
  EC50: > 30 µM
